From ChEMBL document CHEMBL1201862, “PubChem BioAssay data set” (2004)
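Cells were grown in 96-well plates and exposed to each compound for 48 hours at five concentrations; endpoints were interpolated linearly between bracketing concentrations, or set to the highest concentration if not reached. GI50 is the concentration that inhibits growth by half.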 Activity calls are given as the source filed them. Cut-off read from the data, not from the text of the source: active = GI50 up to about 1.1 µM and inactive = higher.

Assays:
Experiment in all cases: NCI-60 cell line screen, 48 h
[1] = tested on: K562
[2] = tested on: NCI-H460
[3] = tested on: DMS-114
[4] = tested on: RXF 631
[5] = tested on: A549
[6] = tested on: SNB-19
[7] = tested on: SR
[8] = tested on: IGROV-1
[9] = tested on: SK-MEL-28
[10] = tested on: SK-MEL-2
[11] = tested on: DMS-273
[12] = tested on: CAKI-1
[13] = tested on: NCI-H522
[14] = tested on: COLO 205
[15] = tested on: M19-MEL
[16] = tested on: NCI-H23
[17] = tested on: XF498
[18] = tested on: SK-MEL-5
[19] = tested on: LXFL 529
[20] = tested on: OVCAR-4
[21] = tested on: SN12C
[22] = tested on: RPMI-8226
[23] = tested on: Malme-3M
[24] = tested on: OVCAR-3
[25] = tested on: A498
[26] = tested on: DLD-1
[27] = tested on: SNB-78
[28] = tested on: ACHN
[29] = tested on: SF-295
[30] = tested on: M14
[31] = tested on: SF-268
[32] = tested on: EKVX
[33] = tested on: SK-OV-3
[34] = tested on: KM12
[35] = tested on: SW-620
[36] = tested on: HCT-116
[37] = tested on: KM-20L2
[38] = tested on: SF-539
[39] = tested on: HCC 2998
[40] = tested on: HCT-15
[41] = tested on: MOLT-4
[42] = tested on: 786-0
[43] = tested on: SNB-75
[44] = tested on: UO-31
[45] = tested on: TK-10
[46] = tested on: HOP-62
[47] = tested on: OVCAR-8
[48] = tested on: HT-29
[49] = tested on: UACC-257
[50] = tested on: HOP-92
[51] = tested on: CCRF-CEM
[52] = tested on: NCI-H226
[53] = tested on: OVCAR-5
[54] = tested on: HOP-18
[55] = tested on: HL-60
[56] = tested on: U-251
[57] = tested on: UACC-62
[58] = tested on: LOX IMVI

`Cc1cccc(C)c1NC(=O)/C(=N/NC(N)=S)C(C)C(=O)c1ccc(Cl)cc1` (stereo unspecified) was tested, and the GI50 [1] was > 100 µM (inactive), the GI50 [2] was > 100 µM (inactive) and the GI50 [3] was > 100 µM (inactive). The GI50 [4] was > 100 µM (inactive), the GI50 [5] was > 100 µM (inactive) and the GI50 [6] was > 100 µM (inactive). The GI50 [7] was > 100 µM (inactive), the GI50 [8] was > 100 µM (inactive) and the GI50 [9] was > 100 µM (inactive). The GI50 [10] was > 100 µM (inactive), the GI50 [11] was > 100 µM (inactive) and the GI50 [12] was > 100 µM (inactive). For the same molecule, the GI50 [13] was 89.9 µM (inactive), the GI50 [14] was > 100 µM (inactive) and the GI50 [15] was > 100 µM (inactive). The GI50 [16] was > 100 µM (inactive), the GI50 [17] was > 100 µM (inactive) and the GI50 [18] was > 100 µM (inactive). For the same molecule, the GI50 [19] was > 100 µM (inactive), the GI50 [20] was 78.5 µM (inactive) and the GI50 [21] was > 100 µM (inactive). The GI50 [22] was > 100 µM (inactive), the GI50 [23] was > 100 µM (inactive) and the GI50 [24] was > 100 µM (inactive). For the same molecule, the GI50 [25] was > 100 µM (inactive), the GI50 [26] was > 100 µM (inactive) and the GI50 [27] was > 100 µM (inactive). The GI50 [28] was > 100 µM (inactive), the GI50 [29] was > 100 µM (inactive) and the GI50 [30] was > 100 µM (inactive). For the same molecule, the GI50 [31] was > 100 µM (inactive), the GI50 [32] was > 100 µM (inactive) and the GI50 [33] was > 100 µM (inactive). The GI50 [34] was > 100 µM (inactive), the GI50 [35] was > 100 µM (inactive) and the GI50 [36] was > 100 µM (inactive). For the same molecule, the GI50 [37] was > 100 µM (inactive), the GI50 [38] was > 100 µM (inactive) and the GI50 [39] was > 100 µM (inactive). For the same molecule, the GI50 [40] was > 100 µM, the GI50 [41] was > 100 µM (inactive) and the GI50 [42] was > 100 µM (inactive). For the same molecule, the GI50 [43] was > 100 µM (inactive), the GI50 [44] was > 100 µM (inactive) and the GI50 [45] was > 100 µM (inactive). The GI50 [46] was > 100 µM (inactive), the GI50 [47] was > 100 µM (inactive) and the GI50 [48] was 75.9 µM (inactive). The GI50 [49] was > 100 µM (inactive), the GI50 [50] was > 100 µM (inactive) and the GI50 [51] was > 100 µM (inactive). For the same molecule, the GI50 [52] was > 100 µM (inactive), the GI50 [53] was > 100 µM (inactive) and the GI50 [54] was > 100 µM (inactive). For the same molecule, the GI50 [55] was 93.8 µM (inactive), the GI50 [56] was > 100 µM (inactive) and the GI50 [57] was > 100 µM (inactive).

`COc1ccc(NC(=O)CC/C(CC(=O)c2ccco2)=N/NC(N)=S)cc1` was tested, and the GI50 [1] was > 100 µM (inactive), the GI50 [2] was > 100 µM (inactive) and the GI50 [3] was > 100 µM (inactive). The GI50 [4] was > 100 µM (inactive), the GI50 [5] was > 100 µM (inactive) and the GI50 [6] was > 100 µM (inactive). For the same molecule, the GI50 [8] was > 100 µM (inactive), the GI50 [10] was > 100 µM (inactive) and the GI50 [11] was > 100 µM (inactive). For the same molecule, the GI50 [12] was > 100 µM (inactive), the GI50 [13] was > 100 µM (inactive) and the GI50 [58] was > 100 µM (inactive). For the same molecule, the GI50 [14] was > 100 µM (inactive), the GI50 [15] was > 100 µM (inactive) and the GI50 [16] was > 100 µM (inactive). For the same molecule, the GI50 [17] was > 100 µM (inactive), the GI50 [19] was > 100 µM (inactive) and the GI50 [20] was > 100 µM (inactive). The GI50 [21] was > 100 µM (inactive), the GI50 [22] was > 100 µM (inactive) and the GI50 [23] was > 100 µM (inactive). For the same molecule, the GI50 [24] was > 100 µM (inactive), the GI50 [25] was > 100 µM (inactive) and the GI50 [26] was > 100 µM (inactive). The GI50 [27] was > 100 µM (inactive), the GI50 [28] was > 100 µM (inactive) and the GI50 [29] was > 100 µM (inactive). For the same molecule, the GI50 [30] was > 100 µM (inactive), the GI50 [31] was > 100 µM (inactive) and the GI50 [32] was > 100 µM (inactive). The GI50 [33] was > 100 µM (inactive), the GI50 [34] was > 100 µM (inactive) and the GI50 [35] was > 100 µM (inactive). The GI50 [36] was > 100 µM (inactive), the GI50 [37] was > 100 µM (inactive) and the GI50 [38] was > 100 µM (inactive). For the same molecule, the GI50 [39] was > 100 µM (inactive), the GI50 [40] was > 100 µM and the GI50 [41] was > 100 µM (inactive). For the same molecule, the GI50 [42] was > 100 µM (inactive), the GI50 [44] was > 100 µM (inactive) and the GI50 [45] was > 100 µM (inactive). The GI50 [46] was > 100 µM (inactive), the GI50 [47] was > 100 µM (inactive) and the GI50 [48] was > 100 µM (inactive). The GI50 [49] was > 100 µM (inactive), the GI50 [50] was > 100 µM (inactive) and the GI50 [51] was > 100 µM (inactive). For the same molecule, the GI50 [52] was > 100 µM (inactive), the GI50 [53] was > 100 µM (inactive) and the GI50 [54] was > 100 µM (inactive). For the same molecule, the GI50 [55] was > 100 µM (inactive), the GI50 [56] was > 100 µM (inactive) and the GI50 [57] was > 100 µM (inactive).
